Test results from US7122668B2, “Platinum complexes and their use in therapy” (priority 2002, dated 2006).

Experiments:
caspase-3 in C-26 cells = assay: EnzChek Caspase-3 assay; assay type: cell-based, human; conditions: 4.5 μM complex, cisplatin 1.5 μM, 5 or 16 hrs
Description: (§1) (2) By the EnzChektm Caspase-3 Assay Kit (Molecular probes, Eugene, Oreg.). This Kit allows the detection of apoptosis by assaying for increases in caspase-3 and other DEVD-specific protease activities (e.g., caspase-7). The basis for the assay is rodamine 110 bis-(N-CBZ-aspartil-L-glutarnyl-L-valyl-aspartic acid amide) (Z-DEVD-R110). This substrate is a bisamide derivative of rhodamine 110(R110) containing DEVD peptides covalently linked to each of R110's amino groups. Upon enzymatic cleavage, the non-fluorescent bisamide substrate converted to the fluorescent R110, which can be quantified by fluorescence microplate reader using excitation at 485±10 nm and emission detection at 535±10 nm.
(§2) (12) (5 μM and 7.5 μM, respectively) for 5 or 16 hr. Both “induced” and “control” cells were then harvested and lysed. Enzyme reactions were performed in 96-well plates with 50 μg of cytosolic proteins (55 minutes of incubation) and with a final concentration of 25 μM Z-DEVD-R110 substrate as described in the kit protocol.

[1] = test system: caspase-3 in OV-1063 cells; assay: EnzChek Caspase-3 assay; assay type: cell-based, human
Description: as §1, §2

C-26 cells = assay type: cell-based; conditions: cell lines of Table 1
Procedure: A human ovarian carcinoma cell line (OV-1063), established at the Hadassah University hospital and human colon carcinoma cell line (C-26) were maintained in RPMI-1640 medium supplemented with 10% FCS, antibiotics and glutamine. All culture medium components were purchased from Biological Industries (Beit-HaEmek, Israel). Both cell lines were maintained at 37° C. in a water-jacketed CO2 incubator.
Cytotoxicity of the synthesized complexes was tested by the methylene blue (MB) staining assay^(19). A fixed number of exponentially growing cells in 200 μl medium were plated in 96-microwell, flat-bottomed plates. For each of the complexes tested, 4 well were used. Following 24 hr in culture, 20 μl of different concentration of the complexes were added to each well containing untreated cells. Normal saline was added to the controls. Cells were exposed to complexes for 4, 24, or 72 hr. At the end of exposure for a fixed time interval, the treated cells as well as parallel control cells were washed and incubation was continued in fresh medium until termination of the experiment. Following 72 hr of growth, cells were fixed by adding 50 μl of 2.5% of glutaraldehyde to each well for 15 min. Fixed cells were rinsed 10 times with fresh de-ionized water and once with borate buffer (0.1 M, pH=8.5), dried and stained with MB (100 μl of 1% solution in 0.1 M borate buffer, pH=8.5) for 1 hr at room temperature. Stained cells were rinsed thoroughly with de-ionized water to remove any non-cell-bound die and then dried. The MB bound to the fixed cells was extracted by incubation at 37° C. with 200 μl of 0.1N HCl for 1 hr, and the net optical density (OD) of the die in each well was determined by a plate spectrophotometer (Labsystems Multyskan BICHROMATIC, Finland) at 620 nm.

**Q.** C1CCNCC1.Cc1ccncc1.[Cl][Pt][Cl] [Complex 5, trans-[PtCl2(4-picoline)(piperidine)]] was tested. Which caspase-3 fluorescent signal (caspase-3 in C-26 cells) did it give?
**A.** no fluorescent signal

**Q.** And the “caspase-3 activation, increase in fluorescence vs untreated cells” value ([1]; 5 hr, 6.5 μM piperidine complex or 7.5 μM piperazine complex)?
**A.** ~2 fold

**Q.** What about the “caspase-3 activation, increase in fluorescence vs untreated cells” value ([1]; 16 hr) of the same molecule?
**A.** 3 fold

**Q.** And the “folds less active than cisplatin” value (C-26 cells)?
**A.** 3 folds
